The nature of series [1]: Solubility of acetate form of SEQ ID NO: 1 in various media. It counts as physicochemical. As to the method: An acetate form of SEQ ID NO: 1 prepared according to Example 1 was evaluated for solubility under various conditions.
Series [2] is described as follows: Rat PK Study 2: effect of NaC10 concentration, IC injection. It counts as in vivo, rats. The following applies: peptide 10 mg/Kg. An excerpt:
In this example, the effect of the concentration of NaCl0 was studied.

Series [3] relates to IL-23-induced IL-17A secretion. The series can be described thus: In vitro rat whole blood assay of IL-23-induced IL-17A secretion. To be noted: as quoted in Example 12. It counts as cell-based.
The nature of series [4]: Storage of phosphate buffered solution. It counts as physicochemical. To be noted: 0.33-33 mg/mL in 50 mM sodium phosphate buffer, 2-8° C. The procedure:
The resultant solution can be stored at 2-8° C. for up to 4 weeks.

Series [5] can be described thus: Dog PK Study: single PO dose of tablets/solution. The following applies: peptide 10 mg/Kg, NaC10 50 mg/Kg.
Method: Poloxamer P188 was also assessed, in combination with NaCl0 with the aim of determining potential synergism. […] Control tablet cores (immediate-release) without the absorption enhancers were also manufactured and dosed as control in the study.
Following dosing of tablets, 10 mL additional water was given. The normal dry diet was returned 2 hours post-dose.

SMILES strings stand for the structures. Where only a bound is given, the exact number is not on record here.

What is called solubility is how much of the substance goes into solution per volume. A low value points to a poorly soluble substance. What is called IC50 is the midpoint of a concentration-inhibition curve. For `CC(=O)NCCCC[C@@H]1NC(=O)[C@H](Cc2c[nH]c3c(C)cccc23)NC(=O)[C@H]([C@@H](C)O)NC(=O)[C@H](CC(N)=O)NC(=O)[C@@H](NC(C)=O)C(C)(C)SSC(C)(C)[C@@H](C(=O)N[C@@H](Cc2ccc(OCCN)cc2)C(=O)N[C@@H](Cc2ccc3ccccc3c2)C(=O)NC2(C(=O)N[C@@H](CCC(=O)O)C(=O)N[C@@H](CC(N)=O)C(=O)N[C@@H](Cc3cccnc3)C(=O)N(C)CC(N)=O)CCOCC2)NC1=O` [Acetate Form of SEQ ID NO: 1], the solubility in series [1] (0.01 N HCl, aqueous buffer) was 95 mg/mL; in series [1] (0.1 N HCl, aqueous buffer) it was 780 mg/mL; in series [1] (0.1 N NaOH, aqueous buffer), over 870 mg/mL; in series [1] (aqueous buffer, Borate buffer pH 9), over 220 mg/mL; in series [1] (aqueous buffer, Citrate buffer pH 2), 270 mg/mL; in series [1] (aqueous buffer, Citrate buffer pH 5), 6.9 mg/mL. Further, the solubility in series [1] (aqueous buffer, Phosphate buffer pH 12) is over 440 mg/mL; in series [1] (aqueous buffer, phosphate buffer pH 7), 7.5 mg/mL; in series [1] (water), 35 mg/mL. For the same compound, the “increase of systemic exposure given by NaC10” value in series [2] (NaC10 20 mg/Kg) was “minimal”. In addition, in series [2] (NaC10 50 mg/Kg), the “absorption enhancement by NaC10” value is given as “highest absorption enhancement”. Also, the “oral bioavailability on increasing NaC10” value in series [2] (NaC10 100 mg/Kg or 200 mg/Kg) is on record as “did not further increase”. In addition, the “effect of NaC10 on systemic exposure” value in series [2] (all NaC10 concentrations tested (20, 50, 200 mg/Kg)) is on record as “increased”. In addition, in series [3], the “IC50 values presented in Table 14” value lay in the range of 0.10 to 0.47 ng/mL. The IC50 in series [3] (read-out: IC50 values presented in Table 14) was 0.054 to 0.5 nM. Moreover, in series [4], the “Storage time of solution” value was “up to 4 weeks”. Moreover, the “effect of NaC10 on systemic exposure, all tablets” value in series [5] is given as “increased”.
